# Key:
# [1] = system: T47D cells; assay: Transwell migration assay; assay type: cell-based, human; settings: FIG. 1a, 7f
# Experimental: (§1) Cell migration was tested using 8 μm-pore polycarbonate membrane Transwell chambers (Corning Costar Products, Acton, Mass., USA) as described previously^3. In brief, the bottom side of the membrane was coated with 25 μg/ml rat tail collagen I (Roche). Serum starved cells were plated in the top Transwell chamber. Medium with or without 1 nM HRG-β1 (R&D systems, Inc., Minneapolis, Minn., USA) was added to the bottom chamber and cells were allowed to migrate for 24 hours. Non-migrated cells were scraped off the top of the membrane. Migrated cells were fixed in 4% formaldehyde and stained in 0.1% crystal violet. Cells were counted under a microscope in ten high power fields. Migration was expressed as cell number per mm^2. In some instances, cells were pre-incubated for 60 minutes with the U0126 MEK inhibitor (50 μM; Promega), the LY294002 PI3K inhibitor (50 μM; Calbiochem-Novabiochem Corporation, San Diego, Calif., USA), the SB203580 p38 MAPK inhibitor (20 μM; Calbiochem), a Src inhibitor (2.5 μM), the U-73122 PLC inhibitor (2 μM; Calbiochem), cycloheximide (10 μg/ml; Sigma) or 5,6-dichloro-1-β-D-ribofuranosylbenzimidazole (20 μg/ml; Fluka Chemie GmbH, Buchs, Switzerland). Cells were then allowed to migrate for 8 hours before counting.
# Cells were transfected with siRNA using Oligofectamine (GIBCO) according to the manufacturer's instructions. The following 21-mer oligoribonucleotide pairs (obtained from Xeragon Inc., Huntsville, Ala., USA) were used: for Shc (accession number HSU7377) nucleotide 236 to 25640, for Memo (CGI-27; accession number AF132961) nucleotide 460 to 480 and for control LacZ (accession number M55068) nucleotide 4277 to 4297. […] Cell lysates were also prepared 3 and 4 days after transfection and analyzed by Western blotting using a specific anti-Shc antibody (BD Transduction laboratories, Heidelberg, Germany). For Memo, mRNA was extracted using RNeasy Mini (Qiagen, Cologne, Germany) and quantitative radioactive PCR^41 was performed using Memo specific primers (forward from nucleotide 90 to 111 and reverse from nucleotide 235 to 256).
# [2] = system: T47D-5R cells expressing Neu or Neu mutants (NYPD, YC, YD, YE); assay: Transwell migration assay, HRG-induced; assay type: cell-based, human; settings: for HRG-induced migration of Neu cells: starting 4 hrs after HRG treatment, RNA or protein synthesis inhibitor
# Experimental: as §1
# Cells were transfected with siRNA using Oligofectamine (GIBCO) according to the manufacturer's instructions. The following 21-mer oligoribonucleotide pairs (obtained from Xeragon Inc., Huntsville, Ala., USA) were used: for Shc (accession number HSU7377) nucleotide 236 to 25640, for Memo (CGI-27; accession number AF132961) nucleotide 460 to 480 and for control LacZ (accession number M55068) nucleotide 4277 to 4297. Cells were plated for migration assay 3 days after siRNA transfection and allowed to migrate for 24 hours. Cell lysates were also prepared 3 and 4 days after transfection and analyzed by Western blotting using a specific anti-Shc antibody (BD Transduction laboratories, Heidelberg, Germany). For Memo, mRNA was extracted using RNeasy Mini (Qiagen, Cologne, Germany) and quantitative radioactive PCR^41 was performed using Memo specific primers (forward from nucleotide 90 to 111 and reverse from nucleotide 235 to 256).
# Peptides were delivered into cells using Chariot protein transfection reagent (Active Motif, Rixensart, Belgium) according to the instruction manual. 16 aa-peptides spanning Tyr residue 1201 of Neu (YC peptide) and Tyr residue 1227 of Neu (YD peptide) were obtained from Neosystem (Strasbourg, France) in phosphorylated and non phosphorylated forms. Cells were plated for migration 30 minutes after peptide transfection and the assay was finished after 22 hours.
# [3] = biological target: T1, ErbB2 (Homo sapiens, UniProt P04626); assay: Shc immunoprecipitation in SKBr3 cells; assay type: cell-based
# T1 construct: endogenous in cells; host or cells: SKBr3 breast carcinoma cells
# [4] = system: T47D and SKBr3 cells; assay: Actin staining / lamellipodia morphology; assay type: cell-based; settings: nocodazole-treated cells
# Experimental: Cells were grown on glass coverslips (Falcon, Le Pont De Claix, France) coated with 25 μg/ml rat tail collagen I, serum starved overnight and stimulated with 1 nM HRG-β1 for different times. Cells were fixed in 4% formaldehyde in phosphate buffer saline (PBS) for 20 minutes, permeabilized in 0.2% Triton X-100 for 10 minutes, blocked with 1% bovine serum albumin in PBS for 20 minutes before addition of anti-Myc antibody (Santa Cruz) and Alexa-Fluor 568 goat anti-mouse IgG (Molecular Probes, Leiden, The Netherlands). DNA was counterstained with 0.25 mg/ml Hoechst No. 33342 (Sigma). Actin was stained for 45 minutes with 2 U/ml TRITC-labeled phalloidin (Molecular Probes). Images were recorded with an Axioskop Zeiss microscope coupled to a Sony 3CCD camera or an Olympus IX70 microscope linked to the DeltaVision workstation (Applied Precision, Issaquah, Wa)
# F-actin was visualised with TRITC-labelled phalloidin.
# [5] = system: T47D and SKBr3 cells; assay: HRG-induced microtubule outgrowth; assay type: cell-based; settings: nocodazole-treated cells
# T1 sequence (P04626 23-1255): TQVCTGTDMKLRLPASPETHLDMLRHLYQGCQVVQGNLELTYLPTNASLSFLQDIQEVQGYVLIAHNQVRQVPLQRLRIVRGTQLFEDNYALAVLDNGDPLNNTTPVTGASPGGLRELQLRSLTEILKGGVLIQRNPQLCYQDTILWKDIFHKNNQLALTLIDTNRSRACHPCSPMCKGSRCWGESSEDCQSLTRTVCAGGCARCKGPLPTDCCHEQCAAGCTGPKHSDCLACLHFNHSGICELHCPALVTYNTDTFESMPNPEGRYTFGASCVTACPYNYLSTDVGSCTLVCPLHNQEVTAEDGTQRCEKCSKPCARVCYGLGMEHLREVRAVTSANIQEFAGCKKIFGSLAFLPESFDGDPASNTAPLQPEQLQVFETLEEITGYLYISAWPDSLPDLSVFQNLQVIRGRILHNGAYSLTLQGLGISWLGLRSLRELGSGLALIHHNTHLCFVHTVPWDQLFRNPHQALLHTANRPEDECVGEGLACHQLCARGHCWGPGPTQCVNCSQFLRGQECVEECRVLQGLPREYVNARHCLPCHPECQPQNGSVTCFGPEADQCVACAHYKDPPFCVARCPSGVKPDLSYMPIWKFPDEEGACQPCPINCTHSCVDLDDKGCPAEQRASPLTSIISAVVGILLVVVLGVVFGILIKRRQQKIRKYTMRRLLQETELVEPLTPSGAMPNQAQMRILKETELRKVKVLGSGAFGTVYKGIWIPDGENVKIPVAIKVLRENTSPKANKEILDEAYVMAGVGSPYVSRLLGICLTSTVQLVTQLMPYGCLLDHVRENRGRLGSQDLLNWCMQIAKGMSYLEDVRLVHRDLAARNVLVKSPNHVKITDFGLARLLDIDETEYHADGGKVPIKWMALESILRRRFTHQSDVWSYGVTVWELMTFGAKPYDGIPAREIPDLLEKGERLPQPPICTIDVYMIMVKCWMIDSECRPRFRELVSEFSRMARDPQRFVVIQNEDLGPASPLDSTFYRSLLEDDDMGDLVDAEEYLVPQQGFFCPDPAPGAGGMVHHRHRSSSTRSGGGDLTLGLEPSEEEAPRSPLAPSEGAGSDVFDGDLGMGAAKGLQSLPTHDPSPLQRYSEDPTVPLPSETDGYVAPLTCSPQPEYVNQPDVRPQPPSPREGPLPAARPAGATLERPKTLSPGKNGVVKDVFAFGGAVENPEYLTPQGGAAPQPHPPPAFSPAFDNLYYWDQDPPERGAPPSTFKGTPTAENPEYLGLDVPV
compound,measurement,setting,value
"EGF: epidermal growth factor (NSDSECPLSHDGYCLHDGVCMYIEALDKYACNCVVGYIGERCQYRDLKWWELR; Epidermal growth factor; UniProt P01133 971-1023, looked up)",stimulation of T47D cell migration by ligand,[1],to a lower degree
C[C@@H]1C[C@@H]([C@H](O)CC2CC(=O)NC(=O)C2)C(=O)[C@@H](C)C1 [cycloheximide],migration rate of Neu cells,"[2]; compared with NYPD cells, FIG. 4a",reduced the migration rate of Neu cells to that of NYPD cells
same,"migration of YD cells, cycloheximide treatment and Memo knock-down compared","[2]; effects not additive, FIG. 7d",blocked to a similar extent
same,HRG-induced migration of Neu cells,[2]; FIG. 4a,strongly blocked
"OC[C@H]1O[C@@H](n2cnc3cc(Cl)c(Cl)cc32)[C@H](O)[C@@H]1O [DRB, 5,6-Dichloro-1-β-D-ribofuranosylbenzimidazole]",HRG-induced migration of Neu cells,[2]; FIG. 4a,strongly blocked
C[C@@H](Nc1ncnc2[nH]c(-c3ccc(O)cc3)cc12)c1ccccc1 [PKI166],CGI-27's ability to associate with Shc,[3],did not influence
same,ErbB2 receptor level in Shc immunoprecipitates,[3],lowered
insulin: insulin,stimulation of T47D cell migration by ligand,[1],to a lower degree
COC(=O)Nc1nc2ccc(C(=O)c3cccs3)cc2[nH]1 [nocodazole],lamellipodia formation,[4],still capable of forming lamellipodia
same,microtubule growth,[5],do not grow microtubules
FGF2: Fibroblast growth factor (FGF) 2,stimulation of T47D cell migration by ligand,[1],stimulated T47D cell migration

# — patent publication US20080081841A1, “Materials and Methods for Modulating Cell Motility” (priority 2003, published 2008)
